Test results: PubChem BioAssay (NCI)
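All cell lines were grown in 96-well plates and treated with compound for 48 hours. TGI is the concentration that stops growth completely.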 Where a SMILES comes first, the peptide text is derived from it. The star is where a group is joined. Boc = CC(C)(C)OC(=O)*

Columns and labels:
Experiment in all cases: NCI tumour cell line growth inhibition, 48 h
[1] = test system: HL-60(TB) leukemia
[2] = test system: UO-31 renal
[3] = test system: SR leukemia
[4] = test system: SK-OV-3 ovarian
[5] = test system: LOX IMVI melanoma
[6] = test system: OVCAR-4 ovarian
[7] = test system: KM12 colon
[8] = test system: CAKI-1 renal
[9] = test system: HCC-2998 colon
[10] = test system: SNB-19 CNS
[11] = test system: A549 NSCLC
[12] = test system: NCI-H522 lung
[13] = test system: SK-MEL-5 melanoma
[14] = test system: NCI-H23 lung
[15] = test system: COLO 205 colon
[16] = test system: NCI-H226 lung
[17] = test system: U251 CNS
[18] = test system: K-562 leukemia
[19] = test system: 786-0 renal

Compound | TGI [1] [µM] | TGI [2] [µM] | TGI [3] [µM] | TGI [4] [µM] | TGI [5] [µM] | TGI [6] [µM] | TGI [7] [µM] | TGI [8] [µM] | TGI [9] [µM] | TGI [10] [µM] | TGI [11] [µM] | TGI [12] [µM] | TGI [13] [µM] | TGI [14] [µM] | TGI [15] [µM] | TGI [16] [µM] | TGI [17] [µM] | TGI [18] [µM] | TGI [19] [µM]
O=C(CCc1cccc(O)c1)NCCc1cccc(OCc2ccccc2)c1 | > 100 | 33.4 | > 71.6 | 53.5 | 29.8 | 63.6 | 21.3 | > 72.2 | 31.7 | 63.7 | > 70.9 | 33.4 | 29.7 | 45.2 | 38 | 31.5 | 32 | 71.3 | 67.5
FC(F)(F)C1(C(F)(F)F)C2CCC3(CC(F)(F)C(F)(F)S3)C1C2 (stereo not drawn) | 51.8 | 68.3 | 44.1 | > 100 | 47.4 | > 100 | > 100 | > 100 | > 100 | > 100 | > 100 | > 100 | > 100 | > 100 | 76.3 | > 100 | > 100 | > 100 | > 100
CCOC(=O)C(Cc1cn(S(=O)(=O)c2ccc(C)cc2)cn1)P(=O)(OCC)OCC (stereo not drawn) | > 100 | > 100 | > 100 | > 100 | > 100 | > 100 | > 100 | > 100 | > 100 | > 100 | > 100 | > 100 | > 100 | > 100 | > 100 | > 100 | > 100 | > 100 | > 100
O=c1c2ncn(CCCl)c2n(-c2ccccc2)c(=S)n1-c1ccccc1 | > 100 | > 100 | > 100 | > 100 | > 100 | > 100 | > 100 | > 100 | > 100 | > 100 | > 100 | > 100 | > 100 | > 100 | > 100 | > 100 | > 100 | > 100 | > 100
NC(N)=NS(=O)(=O)c1ccc(NNc2c3ccccc3nc3c(C(=O)Nc4ccc(S(N)(=O)=O)cc4)cccc23)cc1 | 77.9 | > 100 | > 100 | > 100 | 29.4 | > 100 | > 100 | > 100 | > 100 | > 100 | > 100 | > 100 | > 100 | > 100 | > 100 | > 100 | 83.9 | 69.9 | > 100
COC(=O)c1ccc(NCc2cc(O)ccc2O)cc1O | 4.21 | 5.61 | > 23.8 | > 55.5 | 32.1 | 26.2 | 15.3 | 17.7 | 26.7 | 31.8 | 30.4 | 1.59 | 26.4 | 27.9 | 33.7 | 46.3 | 24.2 | > 79.3 | 21.5
Oc1[nH]c2ccccc2c1N=NC(=S)N1CCCC1 | 8.83 | 11.3 | 3.65 | 21.6 | 18.3 | 32.2 | > 49.5 | 10.8 | 23.6 | > 43.8 | 13.6 | 38.9 | 8.5 | 34.5 | 27.5 | 1.88 | 22.6 | > 42.7 | 17.3
CC(=O)O/C=C\OC1CCCC1 | > 100 | > 100 | > 100 | > 100 | > 100 | > 100 | > 100 | > 100 | > 100 | > 100 | > 100 | > 100 | > 100 | > 100 | > 100 | > 100 | > 100 | > 100 | > 100
O=C(/C=C/c1ccc(F)c(F)c1)OCCc1ccccc1 | > 100 | > 100 | > 100 | > 100 | > 100 | > 100 | > 100 | > 100 | > 100 | > 100 | > 100 | > 100 | > 100 | > 100 | > 100 | > 100 | > 100 | > 100 | > 100
CCOC(=O)C(CC(C)C)NC(=O)C(Cc1ccccc1)NC(=O)CNC(=O)OC(C)(C)C (stereo not drawn) (Boc-Gly-Phe-Leu-OEt; configuration not given here) | 9.88 | > 100 | 36.5 | 50.9 | 34.3 | 71.1 | 37.5 | 23.2 | 37.2 | > 100 | 44.1 | 34.8 | 36.8 |  |  | 41 | 31.9 | 49 | 36.9
